# Data as given in patent US20030186967A1, “Acylresorcinol derivatives are selective vitronectin receptor inhibitors” (American Home Products Corporation, priority 1998, published 2003).
# Where a name gives a salt, the structure may show the parent alone.
# Tests used:
# [1] = test system: osteoclasts; assay: Osteoclast Pitting Assay; type: cell-based, rat; settings: Osteoclast Pitting Assay; neonatal rat osteoclasts on bovine cortical bone slices; read-out: IC50 (μM) Bone Pitting
# Protocol: The assay is conducted as described in Murrills and Dempster (1990). Briefly, 4×4×0.2 mm slices of devitalized bovine cortical bone are numbered, placed in the wells of 96-well culture plates and wetted with 100 ul of Medium 199 containing Hanks salts, 10 mM HEPES, pH 7.0 (Medium 199/Hanks). Bone cell suspensions containing osteoclasts are prepared by mincing the long bones of neonatal rats (Sprague-Dawley, 4-6 days old) in Medium 199/Hanks. 100 uL of the suspension is then plated onto each slice and incubated 30 minutes to allow osteoclasts to adhere. The slices are rinsed to remove non-adherent cells and incubated 24 h in Medium 199 containing Earle's salts, 10 mM HEPES and 0.7 g/L NaHCO3, which equilibrates at pH 6.9 in a 5% CO2 atmosphere. At this pH the adherent osteoclasts excavate an adequate number of resorption pits for assay purposes. Slices are fixed in 2.5% glutaraldehyde and osteoclasts counted following tartrate-resistant acid phosphatase staining. […] All cells are stripped from the slice by sonication on 0.25M NH4OH and the resorption pits formed by the osteoclasts during the experiment stained with toluidine blue. Resorption pits are quantified by manually counting.
# The experiments are conducted according to a block design with osteoclasts from each animal exposed to each treatment. Three replicate slices are used per treatment per animal, such that a total of 96 slices are examined for an experiment involving four animals and eight treatments (including control). Several parameters are recorded on a “per slice” basis: number of pits, number of osteoclasts, number of pits per osteoclast, number of fibroblast-like bone cells. SAS or JMP statistical software is used for statistical analysis. […] IC50s are calculated for active compounds using dose-response curves.
# Reference Compound: Rat calcitonin.
# Osteoclasts are responsible for the bone loss that occurs in the onset of osteoporosis and anti-resorptive drugs directed against the osteoclast are a requirement for patients losing bone.
# [2] = target: T1, αVβ3 integrin (Homo sapiens, UniProt P05106+P06756); assay: Osteopontin-αVβ3 Cell Attachment Assay; type: cell-based
# T1 construct: αVβ3-expressing cell lines are maintained by standard tissue culture techniques; endogenous in cells; host or cells: αVβ3-expressing cell lines
# Protocol: Osteopontin-αVβ3 Cell Attachment Assay The purpose of this assay is to measure the effect of various compounds on the RGD-dependent attachment of cells to osteopontin mediated by the αVβ3 integrin. […] Following the blocking period, wells are aspirated and washed once with D-PBS. Cell Suspension αVβ3-expressing cell lines are maintained by standard tissue culture techniques. […] The cells are pelleted by low-speed centrifugation and washed three times with 0.5 mg/mL trypsin inhibitor in D-PBS (Sigma). The final cell pellet is resuspended in cell suspension media at a concentration of 10^6 cells/mL. Attachment Assay Incubation: […] of diluted test compound is added to osteopontin-coated wells (in triplicate) followed by […] of cell suspension; background cell attachment is determined in uncoated wells. The plate is incubated at 25° C. in a humidified air atmosphere for 1.5 hours. Following the incubation period, the wells are gently aspirated and washed once with D-PBS. Cell Number Detection: The number of cells attached is determined by an MTT dye conversion assay (Promega) according to the manufacturer's instructions. Briefly, MTT dye is diluted in cell suspension media (15:85) and […] is added to each well. […] The assay plates are covered and incubated at 37° C. in a humidified air atmosphere overnight. […] Reference Compounds Various […]
# [3] = test system: thyro-parathyroidectomized (TPTX) rats; assay: PTH-induced hypercalcemia of thyroparathyroidectomized male rats; type: in vivo, rat; settings: Rattus norvegicus
# Protocol: Effects of test compounds on PTH-induced hypercalcemia of thyroparathyroidectomized male rats
# Male thyro-parathyroidectomized (TPTX) rats (Charles River) were randomly assigned to groups of 7 rats/group. Following a baseline serum calcium determination an Alzet 1003D minipump (Alza Corporation, Palo Alto, Calif.) loaded with 0.3 mg/ml PTH (Bachem, Philadelphia, Pa.) was implanted subcutaneously in each rat. For evaluation of prophylactic effects of a test drug, another minipump with appropriate concentration of the test drug solution was implanted subcutaneously at a site away from PTH minipump. Alternatively, test drugs were administered by oral gavage as a solution or uniform suspension in an appropriate medium depending on the physical properties of the test compound. A group of 7 unimplanted TPTX rats was set aside as a normal control group. Twenty hours after minipump implantation blood was collected from each rat to confirm the presence of hypercalcemia (judged by elevation of serum calcium levels, 2 SD>normal non-implanted level). At various intervals between 0.5 and 24 hours after dosing (usually one to three time points), blood was collected from each rat and the serum evaluated for total calcium. Serum calcium levels were measured using the Nova 7+7 calcium auto analyzer spectrophotometrically using the Sigma test kit (#587A). Test results were determined by the difference in serum calcium between vehicle and treatment group following PTH administration, using a one-way analysis of variance with Dunnett's test or other multiple comparison methods.
# T1 sequence (P06756 31-889 limits assumed): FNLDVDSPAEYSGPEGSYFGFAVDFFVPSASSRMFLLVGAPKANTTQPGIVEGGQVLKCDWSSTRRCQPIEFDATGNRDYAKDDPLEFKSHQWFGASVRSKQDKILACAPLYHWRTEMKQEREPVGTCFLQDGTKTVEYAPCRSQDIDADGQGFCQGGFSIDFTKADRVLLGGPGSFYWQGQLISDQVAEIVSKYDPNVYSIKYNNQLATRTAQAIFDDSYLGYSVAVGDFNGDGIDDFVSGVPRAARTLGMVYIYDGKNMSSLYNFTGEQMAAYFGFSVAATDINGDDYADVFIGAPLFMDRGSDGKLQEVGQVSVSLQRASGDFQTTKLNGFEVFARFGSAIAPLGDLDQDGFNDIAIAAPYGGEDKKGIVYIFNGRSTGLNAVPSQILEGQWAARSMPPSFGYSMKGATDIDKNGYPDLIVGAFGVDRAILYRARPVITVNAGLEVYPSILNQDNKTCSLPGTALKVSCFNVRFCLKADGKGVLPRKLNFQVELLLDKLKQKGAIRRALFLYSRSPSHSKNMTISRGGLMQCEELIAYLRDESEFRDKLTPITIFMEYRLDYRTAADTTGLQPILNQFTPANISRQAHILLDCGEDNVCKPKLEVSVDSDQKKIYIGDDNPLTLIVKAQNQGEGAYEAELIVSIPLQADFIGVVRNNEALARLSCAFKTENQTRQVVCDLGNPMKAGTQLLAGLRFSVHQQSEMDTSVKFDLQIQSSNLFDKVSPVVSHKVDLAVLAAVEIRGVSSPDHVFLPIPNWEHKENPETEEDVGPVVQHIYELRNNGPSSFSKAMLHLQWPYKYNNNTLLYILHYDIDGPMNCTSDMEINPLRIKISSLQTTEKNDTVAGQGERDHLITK
# T1 sequence (P06756 891-1048 partner limits assumed): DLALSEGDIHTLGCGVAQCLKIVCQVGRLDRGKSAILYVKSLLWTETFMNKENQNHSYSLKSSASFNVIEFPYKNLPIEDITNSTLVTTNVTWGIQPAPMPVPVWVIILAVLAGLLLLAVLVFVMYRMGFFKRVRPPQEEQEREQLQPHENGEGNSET
# T1 sequence (P05106 27-788): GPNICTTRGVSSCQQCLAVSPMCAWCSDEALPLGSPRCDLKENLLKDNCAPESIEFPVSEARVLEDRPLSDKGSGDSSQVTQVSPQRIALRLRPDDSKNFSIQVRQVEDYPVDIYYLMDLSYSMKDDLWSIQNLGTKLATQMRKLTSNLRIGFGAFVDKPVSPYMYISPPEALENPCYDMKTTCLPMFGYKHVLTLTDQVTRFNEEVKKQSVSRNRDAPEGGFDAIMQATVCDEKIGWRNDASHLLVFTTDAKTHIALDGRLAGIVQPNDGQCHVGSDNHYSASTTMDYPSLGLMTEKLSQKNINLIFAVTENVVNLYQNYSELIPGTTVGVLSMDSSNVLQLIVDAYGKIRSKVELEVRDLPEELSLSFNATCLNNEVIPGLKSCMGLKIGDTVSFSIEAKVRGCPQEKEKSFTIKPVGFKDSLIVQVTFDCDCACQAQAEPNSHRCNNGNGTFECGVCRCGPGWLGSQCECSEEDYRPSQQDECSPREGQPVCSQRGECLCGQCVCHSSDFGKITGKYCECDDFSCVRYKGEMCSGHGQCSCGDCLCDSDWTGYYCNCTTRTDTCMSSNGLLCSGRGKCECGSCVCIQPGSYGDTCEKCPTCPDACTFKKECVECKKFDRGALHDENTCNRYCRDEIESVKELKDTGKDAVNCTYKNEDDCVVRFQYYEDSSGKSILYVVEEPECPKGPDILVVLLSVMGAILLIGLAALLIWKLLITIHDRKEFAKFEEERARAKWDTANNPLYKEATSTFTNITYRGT
IC50 [1],IC50 [2],IC50 (μM) Cell [2],melting point,Compound,inhibition in vivo at 100 mg/kg ([3]; po),"inhibition in vivo at 30 mg/kg ([3]; sc, 30 mg/kg)","inhibition in vivo at 75 mg/kg ([3]; sc, 75 mg/kg)",inhibition in vivo at 100 mg/kg ([3]; sc)
0.43 µM,0.002 µM,,,"O=C(NC[C@H](NS(=O)(=O)c1ccccc1)C(=O)O)c1ccc(OCCNC2=NCCCN2)cc1O [Example 275, 2(S)-Benzenesulfonylamino-3-[2-hydroxy-4-[2-(3,4,5,6-tetrahydro-pyrimidin-2-ylamino)ethoxy]benzoylamino]propionic acid hydrochloride]",39%,64%,105%,112%
0.15 µM,0.12 µM,,,"CCOC(=O)[C@H](CNC(=O)c1ccc(OCCNC2=NCCCN2)cc1O)NS(=O)(=O)c1ccccc1 [Example 276, hydrochloride]",,,,170%
0.4 µM,0.05 µM,,,"CCOC(=O)[C@H](CNC(=O)c1ccc(OCCNC2=NCCCN2)cc1O)NC(=O)OCc1ccccc1 [Example 277, 2(S)-Benzyloxycarbonylamino-3-[2-hydroxy-4-[2-(3,4,5,6-tetra-hydropyrimidin-2-ylamino)ethoxy]benzoylamino]propionic acid ethyl ester hydrochloride]",79%,,,86%
1.9 µM,,inactive @ 100,124 to 125 °C,"CCOC(=O)[C@H](CNC(=O)c1ccc(OCCNc2ncccn2)cc1O)NC(=O)OCc1ccccc1 [Example 299, 2(S)-Benzyloxycarbonylamino-3-[2-hydroxy-4-[2-(pyrimidin-2-ylamino)ethoxy]-benzoylamino]propionic acid ethyl ester hydro-chloride]",102%,,,
